Data: patent US9532519B2, “Plant growth regulator and use thereof” (Japan Science and Technology Agency, priority 2006, dated 2017)

Columns and labels:
Format in all cases: in vivo
eustoma = experiment: Effect on promoting growth of roots of eustoma; details: MS culture medium containing 1 mM-GSSG or GSH, grown 1 month, transferred to planter
Source text: In the planter, 2 parts of vermiculite, 1 part of The Kureha Ikubyou Baido soil, and 1 part of vermiculite were layered as a lower layer, a middle layer, and an upper layer, respectively, and the above plants were transferred thereto.

[1] = tested on: strawberry (breed; Eminent garden series, Yokubari-ichigo kurenai (SUMIKA)); experiment: Effect of oxidized glutathione on growth of strawberry (number of runners); details: GSH-treated zone
Arabidopsis = experiment: Influence of oxidized glutathione on growth of Arabidopsis; details: 5 mM H2O2 solution; 8 weeks after the sowing
Method: Specifically, the plants were cultivated with two or three plants in one pod of approximately 65 in width, 65 in depth, and 50 in height, and an appropriate amount of a treatment solution was supplied. The effect of the treatment was evaluated with respect to the number of rosette leaves, the speed of a growing flower stalk, the number of flowers, and the number of seeds.

Compound: N[C@@H](CCC(=O)N[C@@H](CS)C(=O)NCC(=O)O)C(=O)O [GSH, reduced glutathione]
- growth of roots vs plants not treated with GSSG (eustoma): subdued growth of roots
- increase in the number of runners relative to the increase of the GSSG-treated zone [1]: approximately one third
- number of runners per one stock vs Cont zone [1]: more number of runners per one stock than a Cont zone

Compound: OO [H2O2, reference compound]
- state of plant (life of plant) (Arabidopsis): withering
